As a reminder, the IC50 is the point on the concentration scale where inhibition reaches its midpoint. A lower IC50 goes with greater potency in that assay.

The values below come from US8258311B2, “Human protein tyrosine phosphatase inhibitors and methods of use” (Aerpio Therapeutics Inc., priority 2006, dated 2012).

For one assay, the target named is T1, PTP1B (Homo sapiens, UniProt P18031).
T1 sequence (P18031 1-435): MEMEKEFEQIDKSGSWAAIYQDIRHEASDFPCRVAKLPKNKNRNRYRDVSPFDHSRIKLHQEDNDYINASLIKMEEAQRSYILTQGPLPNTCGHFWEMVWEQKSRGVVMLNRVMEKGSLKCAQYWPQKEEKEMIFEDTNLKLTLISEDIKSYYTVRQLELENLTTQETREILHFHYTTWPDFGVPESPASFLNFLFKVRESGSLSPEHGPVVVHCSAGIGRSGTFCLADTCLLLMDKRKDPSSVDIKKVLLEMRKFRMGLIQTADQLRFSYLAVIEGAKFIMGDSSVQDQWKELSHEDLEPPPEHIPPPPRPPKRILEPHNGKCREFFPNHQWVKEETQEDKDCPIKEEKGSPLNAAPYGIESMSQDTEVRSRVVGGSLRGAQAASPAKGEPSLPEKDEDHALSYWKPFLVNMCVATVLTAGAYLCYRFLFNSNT
The experiment in a line: PTP1B inhibition (IC50). It counts as biochemical.

In a further assay the target is HPTPβ (Homo sapiens, UniProt P23467). The experiment in a line: HPTPβ inhibition (IC50). The class given is biochemical.
Chain of HPTPβ (P23467 23-1997): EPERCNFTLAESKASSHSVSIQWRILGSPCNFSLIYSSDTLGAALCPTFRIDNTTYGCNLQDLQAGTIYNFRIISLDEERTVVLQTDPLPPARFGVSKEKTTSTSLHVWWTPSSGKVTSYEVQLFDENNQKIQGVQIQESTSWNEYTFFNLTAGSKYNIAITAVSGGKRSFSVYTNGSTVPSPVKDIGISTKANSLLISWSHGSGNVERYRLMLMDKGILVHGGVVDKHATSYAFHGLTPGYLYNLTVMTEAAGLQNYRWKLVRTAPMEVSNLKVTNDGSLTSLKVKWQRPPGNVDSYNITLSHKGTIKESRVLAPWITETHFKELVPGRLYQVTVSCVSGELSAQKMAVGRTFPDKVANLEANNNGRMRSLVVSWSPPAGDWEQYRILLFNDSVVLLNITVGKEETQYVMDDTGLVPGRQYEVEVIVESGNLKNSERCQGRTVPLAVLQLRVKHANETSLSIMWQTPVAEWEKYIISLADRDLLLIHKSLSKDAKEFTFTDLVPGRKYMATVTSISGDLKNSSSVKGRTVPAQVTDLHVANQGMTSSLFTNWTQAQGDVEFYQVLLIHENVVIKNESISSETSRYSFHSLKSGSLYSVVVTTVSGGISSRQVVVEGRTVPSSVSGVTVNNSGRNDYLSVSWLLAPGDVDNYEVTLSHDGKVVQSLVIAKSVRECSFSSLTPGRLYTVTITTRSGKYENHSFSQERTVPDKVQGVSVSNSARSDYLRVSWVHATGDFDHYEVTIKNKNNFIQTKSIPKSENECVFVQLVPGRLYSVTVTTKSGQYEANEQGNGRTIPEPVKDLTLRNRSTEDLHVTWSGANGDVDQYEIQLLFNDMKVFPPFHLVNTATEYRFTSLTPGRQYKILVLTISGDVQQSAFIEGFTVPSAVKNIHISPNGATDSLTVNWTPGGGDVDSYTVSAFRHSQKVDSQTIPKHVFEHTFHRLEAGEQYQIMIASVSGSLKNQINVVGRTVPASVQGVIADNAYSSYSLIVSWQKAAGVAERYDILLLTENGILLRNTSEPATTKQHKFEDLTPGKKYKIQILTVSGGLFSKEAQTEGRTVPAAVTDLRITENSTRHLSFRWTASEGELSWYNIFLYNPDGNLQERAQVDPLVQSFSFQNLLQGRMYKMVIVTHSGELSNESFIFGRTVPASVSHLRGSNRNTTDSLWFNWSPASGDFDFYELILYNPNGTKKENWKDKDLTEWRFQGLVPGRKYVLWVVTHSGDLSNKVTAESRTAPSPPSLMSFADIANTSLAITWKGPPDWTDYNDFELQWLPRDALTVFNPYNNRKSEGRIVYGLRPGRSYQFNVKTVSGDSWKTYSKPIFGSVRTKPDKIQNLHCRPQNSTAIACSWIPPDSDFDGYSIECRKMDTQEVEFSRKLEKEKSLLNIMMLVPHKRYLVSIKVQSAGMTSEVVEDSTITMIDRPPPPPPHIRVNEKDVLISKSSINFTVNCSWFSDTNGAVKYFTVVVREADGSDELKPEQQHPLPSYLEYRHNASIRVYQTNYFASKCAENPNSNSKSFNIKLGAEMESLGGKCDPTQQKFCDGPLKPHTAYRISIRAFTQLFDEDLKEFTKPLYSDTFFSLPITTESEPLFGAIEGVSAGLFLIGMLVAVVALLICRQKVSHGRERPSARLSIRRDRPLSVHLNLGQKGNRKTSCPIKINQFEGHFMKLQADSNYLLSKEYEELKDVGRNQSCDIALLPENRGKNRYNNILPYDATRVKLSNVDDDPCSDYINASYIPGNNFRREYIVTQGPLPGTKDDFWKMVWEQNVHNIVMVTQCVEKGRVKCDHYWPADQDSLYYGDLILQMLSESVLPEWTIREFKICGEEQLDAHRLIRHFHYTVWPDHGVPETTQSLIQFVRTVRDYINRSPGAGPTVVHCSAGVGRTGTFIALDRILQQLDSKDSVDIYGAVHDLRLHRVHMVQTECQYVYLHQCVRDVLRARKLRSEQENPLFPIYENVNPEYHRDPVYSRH

Take `COC(=O)N[C@@H](Cc1ccccc1)C(=O)N[C@@H](Cc1ccc(NS(=O)(=O)O)cc1)c1csc(-c2ccco2)n1`: on PTP1B, 5000 nM corresponded to half-maximal inhibition (IC50).

On to `Cc1nc([C@H](Cc2ccc(NS(=O)(=O)O)cc2)NC(=O)OC(C)(C)C)cs1`, for which the IC50 at HPTPβ is 33 nM; against PTP1B, 18900 nM. For `CCOC(=O)Cc1csc([C@H](Cc2ccc(NS(=O)(=O)O)cc2)NC(=O)OC(C)(C)C)n1`, the IC50 is 167 nM against HPTPβ and 50000 nM on PTP1B.

In the case of “4-((S)-2-(4-Ethylthiazol-2-yl)-2-{(S)-2-[2-(methoxycarbonylamino)-acetamido]-3-phenylpropanamido}ethyl)phenylsulfamic acid”, half-maximal inhibition against PTP1B (IC50) was put at 299 nM. For the compound `CC(C)(C)C(=O)N[C@@H](Cc1ccc(NS(=O)(=O)O)cc1)c1nc(-c2ccc3c(c2)OCCO3)cs1` [4-((S)-2-(4-(2,3-Dihydrobenzo[b][1,4]dioxin-6-yl)thiazol-2-yl)-2-pivalamidoethyl)phenylsulfamic acid], the IC50 was found to be 138 nM at HPTPβ and 38300 nM at PTP1B. The like results for `COc1ccc(-c2csc([C@H](Cc3ccc(NS(=O)(=O)O)cc3)NC(=O)C(C)(C)C)n2)c(OC)c1` [4-((S)-2-(4-(2,4-Dimethoxyphenyl)thiazol-2-yl)-2-pivalamidoethyl)phenyl-sulfamic acid] were, in that order, 86 nM and 43100 nM. The like results for `COc1cccc(-c2csc([C@H](Cc3ccc(NS(=O)(=O)O)cc3)NC(=O)C(C)(C)C)n2)c1` [4-((S)-2-(4-(3-Methoxyphenyl)thiazol-2-yl)-2-pivalamidoethyl)phenylsulfamic acid] were, in that order, 110 nM and 40100 nM.

Take `CC(C)(C)OC(=O)N[C@@H](Cc1ccc(NS(=O)(=O)O)cc1)c1nc(-c2cccc(C(F)(F)F)c2)cs1` [4-((S)-2-(tert-Butoxycarbonylamino)-2-(4-(3-(trifluoromethyl)phenyl)thiazol-2-yl)ethyl)-phenyl sulfamic acid]: the concentration for half-maximal inhibition (IC50) against HPTPβ stood at 253 nM; on PTP1B it was 11800 nM. The like results for `CC(C)(C)OC(=O)N[C@@H](Cc1ccc(NS(=O)(=O)O)cc1)c1nc(-c2ccsc2)cs1` [4-((S)-2-(tert-Butoxycarbonylamino)-2-(4-(thiophen-3-yl)thiazol-2-yl)ethyl)phenyl sulfamic acid] were, in that order, 45 nM and 14600 nM. For the compound `CCc1csc([C@H](Cc2ccc(NS(=O)(=O)O)cc2)NC(=O)[C@H](Cc2ccccc2)NC(C)=O)n1` [4-[(S)-2-((S)-2-Acetamido-3-phenylpropanamido)-2-(4-ethylthiazol-2-yl)ethyl]phenylsulfamic acid], the IC50 stood at 1 nM against HPTPβ and 1970 nM against PTP1B. The corresponding values for `CC(=O)N[C@@H](Cc1ccccc1)C(=O)N[C@@H](Cc1ccc(NS(=O)(=O)O)cc1)c1nc(C(C)(C)C)cs1` [4-[(S)-2-((S)-2-Acetamido-3-phenylpropanamido)-2-(4-tert-butylthiazol-2-yl)ethyl]phenylsulfamic acid] are 0.3 nM and 1520 nM. Turning to `COC(=O)N[C@@H](Cc1ccccc1)C(=O)N[C@@H](Cc1ccc(NS(=O)(=O)O)cc1)c1csc(C2CC2)n1` [4-{(S)-2-(2-Cyclopropylthiazol-4-yl)-2-[(S)-2-(methoxy-carbonylamino)-3-phenylpropanamido]ethyl}phenylsulfamic acid], the IC50 was determined as 0.2 nM against HPTPβ and 1350 nM against PTP1B.

`COC(=O)N[C@@H](Cc1ccccc1)C(=O)N[C@@H](Cc1ccc(NS(=O)(=O)O)cc1)c1nc(C)c(C)s1` [4-{(S)-2-(4,5-Dimethylthiazol-2-yl)-2-[(S)-2-(methoxycarbonylamino)-3-phenyl-propanamido]ethyl}phenylsulfamic acid]: the IC50 amounted to 1 nM against HPTPβ and 310 nM against PTP1B. The like results for `CCOC(=O)c1csc([C@H](Cc2ccc(NS(=O)(=O)O)cc2)NC(=O)[C@H](Cc2ccccc2)NC(=O)OC)n1` [4-{(S)-2-(4-(Ethoxycarbonyl)thiazol-2-yl)-2-[(S)-2-(methoxy-carbonylamino)-3-phenylpropanamido]ethyl}phenylsulfamic acid] were, in that order, 0.2 nM and 70 nM. As for `COC(=O)N[C@@H](Cc1ccccc1)C(=O)N[C@@H](Cc1ccc(NS(=O)(=O)O)cc1)c1nc(C2CCCCC2)cs1` [4-{(S)-2-(4-Cyclohexylthiazol-2-yl)-2-[(S)-2-(methoxycarbonylamino)-3-phenyl-propanamido]ethyl}phenylsulfamic acid], at PTP1B, half-maximal inhibition (IC50) required 1780 nM. Turning to `COC(=O)N[C@@H](Cc1ccccc1)C(=O)N[C@@H](Cc1ccc(NS(=O)(=O)O)cc1)c1nc(C2CC2)cs1` [4-{(S)-2-(4-Cyclopropylthiazol-2-yl)-2-[(S)-2-(methoxy-carbonylamino)-3-phenylpropanamido]ethyl}phenylsulfamic acid], the figures for the IC50 against HPTPβ and against PTP1B were 0.01 nM and 300 nM, respectively. The corresponding values for `CCc1nc([C@H](Cc2ccc(NS(=O)(=O)O)cc2)NC(=O)[C@H](Cc2ccccc2)NC(=O)OC)sc1C` [4-{(S)-2-(4-Ethyl-5-methylthiazol-2-yl)-2-[(S)-2-(methoxy-carbonylamino)-3-phenyl-propanamido]ethyl}phenylsulfamic acid] are 0.1 nM and 1120 nM. With `CCc1nc([C@H](Cc2ccc(NS(=O)(=O)O)cc2)NC(=O)[C@H](Cc2ccccc2)NC(=O)OC)sc1-c1ccccc1` [4-{(S)-2-(4-Ethyl-5-phenylthiazol-2-yl)-2-[(S)-2-(methoxy-carbonylamino)-3-phenyl-propanamido]ethyl}phenylsulfamic acid], 390 nM corresponded to half-maximal inhibition on PTP1B (IC50). On to `CCc1csc([C@H](Cc2ccc(NS(=O)(=O)O)cc2)NC(=O)[C@@H](NC(=O)OC)C(C)C)n1` [4-{(S)-2-(4-Ethylthiazol-2-yl)-2-[(S)-2-(methoxycarbonylamino)-3-methylbutanamido]-ethyl}phenylsulfamic acid], for which the IC50 against HPTPβ stood at 3 nM; against PTP1B, 1030 nM. The corresponding values for `CCc1csc([C@H](Cc2ccc(NS(=O)(=O)O)cc2)NC(=O)[C@H](Cc2ccccc2)NC(=O)OC)n1` [4-{(S)-2-(4-Ethylthiazol-2-yl)-2-[(S)-2-(methoxycarbonylamino)-3-phenylpropanamido]ethyl}phenylsulfamic acid] are 0.162 nM and 490 nM. Turning to `CCc1csc([C@H](Cc2ccc(NS(=O)(=O)O)cc2)NC(=O)[C@H](CC(C)C)NC(=O)OC)n1` [4-{(S)-2-(4-Ethylthiazol-2-yl)-2-[(S)-2-(methoxycarbonylamino)-4-methylpentanamido]ethyl}phenylsulfamic acid], the IC50 at HPTPβ was determined as 0.3 nM; against PTP1B it was 70 nM. In the case of `CC(C)(C)OC(=O)N[C@@H](Cc1ccccc1)C(=O)N[C@@H](Cc1ccc(NS(=O)(=O)O)cc1)c1csc(-c2ccccc2)n1` [4-{(S)-2-(S)-2-(tert-Butoxycarbonylamino)-3-phenylpropanamido-2-(2-phenylthiazol-4-yl)}phenylsulfamic acid], the IC50 against PTP1B stood at 905 nM. The same measure, in the same setting: the result for `COC(=O)N[C@@H](Cc1ccccc1)C(=O)N[C@@H](Cc1ccc(NS(=O)(=O)O)cc1)c1csc(-c2sccc2Cl)n1` [4-{(S)-2-[2-(3-Chlorothiophen-2-yl)thiazol-4-yl]-2-[(S)-2-(methoxycarbonylamino)-3-phenylpropanamido]ethyl}phenylsulfamic acid] reads 950 nM; that for `COC(=O)N[C@@H](Cc1ccccc1)C(=O)N[C@@H](Cc1ccc(NS(=O)(=O)O)cc1)c1nc(-c2ccc(Cl)s2)cs1` [4-{(S)-2-[4-(5-Chlorothiophen-2-yl)thiazol-2-yl]-2-[(S)-2-(methoxycarbonylamino)-3-phenylpropanamido]ethyl}phenyl-sulfamic acid], 370 nM; that for `COC(=O)N[C@@H](Cc1ccccc1)C(=O)N[C@@H](Cc1ccc(NS(=O)(=O)O)cc1)c1nc(-c2ccccc2)cs1` [4-{(S)-2-[(S)-2-(Methoxycarbonylamino)-3-phenylpropanamido]-2-(4-phenylthiazol-2-yl)ethyl}phenylsulfamic acid], 597 nM.

Compound `COC(=O)N[C@@H](Cc1ccccc1)C(=O)N[C@@H](Cc1ccc(NS(=O)(=O)O)cc1)c1csc(-c2sccc2C)n1` [4-{(S)-2-[(S)-2-(Methoxycarbonylamino)-3-phenylpropanamido]-2-[2-(3-methylthiophen-2-yl)thiazol-4-yl]ethyl}phenylsulfamic acid] yielded an IC50 at PTP1B of 1090 nM. The compound `COC(=O)N[C@@H](Cc1ccccc1)C(=O)N[C@@H](Cc1ccc(NS(=O)(=O)O)cc1)c1csc(-c2cccs2)n1` [4-{(S)-2-[(S)-2-(Methoxycarbonylamino)-3-phenylpropanamido]-2-[2-(thiophen-2-yl)thiazol-4-yl]ethyl}phenylsulfamic acid] displayed an IC50 against PTP1B of 604 nM. Same read-out and setting: the result for `COC(=O)N[C@@H](Cc1ccccc1)C(=O)N[C@@H](Cc1ccc(NS(=O)(=O)O)cc1)c1nc(-c2cccs2)cs1` [4-{(S)-2-[(S)-2-(Methoxycarbonylamino)-3-phenylpropanamido]-2-[4-(thiophen-2-yl)thiazol-2-yl]ethyl}phenylsulfamic acid] reads 990 nM; that for `COC(=O)N[C@@H](Cc1ccccc1)C(=O)N[C@@H](Cc1ccc(NS(=O)(=O)O)cc1)c1csc(-c2ccccc2)n1` [4-{(S)-2-[(S)-2-(Methoxycarbonylamino)-3-phenylpropionamido]-2-(2-phenylthiazole-4-yl)ethyl}phenylsulfamic acid], 508 nM. In turn, `Cc1csc([C@H](Cc2ccc(NS(=O)(=O)O)cc2)NC(=O)C(C)(C)C)n1` [(S)-4-(2-(4-Methylthiazol-2-yl)-2-pivalamidoethyl)phenyl-sulfamic acid] returned a half-inhibitory concentration (IC50) against PTP1B of 50000 nM.
